Measurements from patent US5656662A, “Synthesis of optically pure 4-alkenyl- or 4-alkanyl-2-hydroxytetronic acids” (The Ohio State University Research Foundation, priority 1995, dated 1997).

Assays:
Type in all cases: cell-based
[1] = test system: IL-8; experiment: IL-8 secretion from purified human monocytes; set-up: key: NE: No effect; INHIB: Inhibition; STIM: Stimulation; IC40: 40% Inhibitory Concentration; EC50: 50% Effective Concentration; TC: Tolerated Concentration; IA: Interferes with Assay
Procedure: (§1) This assay determines the effect of test compounds on the secretion of IL-8 from purified human monocytes. Compounds are tested for their ability to downregulate the production of IL-8 in activated monocytes, or upregulate secretion of IL-8 in unstimulated monocytes. Test compounds are incubated for sixteen hours with purified human monocytes at four dilutions over a range of three log10 concentrations. Where appropriate, lipopolysaccharide (LPS) is used to stimulate the monocytes.
(§2) The level of IL-8 in the resultant supernatants is quantitated in a solid phase Enzyme-linked Immunoassay (EIA) performed in a 96 well format. IL-8 present in the samples is captured by a specific monoclonal antibody immobilized on the well, and probed with an anti-IL-8 polyclonal antibody conjugated to horseradish peroxidase, followed by an appropriate substrate. The levels of IL-8 are determined by interpolation of the resultant color change in the substrate from a standard curve. All supernatants are tested in duplicate with controls and standards.

[2] = test system: IL-1β; experiment: IL-1β secretion from purified human monocytes; set-up: key to EFFECT on IL1β: NE: No effect; INHIB: Inhibition; STIM: Stimulation; IC40: 40% Inhibitory Concentration; EC50: 50% Effective Concentration; TC: Tolerated Concentration; IA: Interferes with Assay
Procedure: This assay determines the effect of test compounds on the secretion of IL-1β from purified human monocytes.
as §1, with “Compounds” for “This assay determines the effect of test compounds on the secretion of IL-8 from purified human monocytes. Compounds”, “IL-1β” for “IL-8”
as §2, with “IL-1β” for “IL-8”, “anti-IL-1β” for “anti-IL-8”
as §1, with “IL-1β” for “IL-8”

[3] = test system: GM-CSF; experiment: GM-CSF expression from purified human monocytes; set-up: key: NE: No effect; INHIB: Inhibition; STIM: Stimulation; IC40: 40% Inhibitory Concentration; EC50: 50% Effective Concentration; TC: Tolerated Concentration; IA: Interferes with Assay
Procedure: as §1, with “the expression” for “the secretion”, “of GM-CSF” for “of IL-8”
as §2, with “level of GM-CSF in the” for “level of IL-8 in the”, “well format. GM-CSF present in” for “well format. IL-8 present in”, “with an anti-GM-CSF polyclonal antibody” for “with an anti-IL-8 polyclonal antibody”, “levels of GM- CSF are determined” for “levels of IL-8 are determined”

[4] = test system: TxA2; experiment: TxA2 production by purified human monocytes; set-up: key to EFFECT on TxA2: NE: No effect; INHIB: Inhibition; STIM: Stimulation; IC40: 40% Inhibitory Concentration; EC50: 50% Effective Concentration; TC: Tolerated Concentration; IA: Interferes with Assay
Procedure: This procedure measures the ability of test compounds to modulate the amount of TxA2 (the major cyclo-oxygenase product) produced by purified human monocytes. Compounds are tested for their ability to downregulate the secretion of TxA2 from activated monocytes, or upregulate secretion of TxA2 from unstimulated monocytes. Test compounds are incubated for ninety minutes with purified human monocytes at four dilutions over a range of three log10 concentrations. Where appropriate, zymosan is used to stimulate the monocytes.
The level of TxA2 in the resultant supernatants is quantitated by immunoassay performed in a 96 well format. TxA2 levels modulated by unknown compounds are determined by interpolation from a standard curve. All compounds are tested in duplicate with controls and standards.

Structure (SMILES): CCCCCCCCCCCCCC/C=C\CC[C@@H]1OC(=O)C(O)=C1O [(S)-3,4-Dihydroxy-5-[(Z)-3-octadecenyl]-2(5H)-furanone]
- EFFECT on IL8 ([1]; STIMULATED): NE
- EFFECT on IL8 ([1]; UNSTIMULATED): NE
- IC40 ([2]; Homo sapiens, Monocyte, 16 h, STIMULATED, INHIB, 40% Inhibitory Concentration, read-out: IC40, IL1β): 50 µM
- EFFECT on IL1β ([2]; STIMULATED): INHIB
- EFFECT on IL1β ([2]; UNSTIMULATED): NE
- EFFECT on GMCSF ([3]; STIMULATED): NE
- EFFECT on GMCSF ([3]; UNSTIMULATED): NE
- EC50 ([4]; Homo sapiens, Monocyte, STIMULATED, INHIB): 5 µM
- EFFECT on TxA2 ([4]; STIMULATED): INHIB
- EFFECT on TxA2 ([4]; UNSTIMULATED): NE
